Where two headings read alike, the source gives them in different places.
Test system: cancer cells
Test: MTS assay: inhibition of cell growth (formazan absorbance at 492 nm after 72 hours with test compound)
Assay type: cell-based
Settings: inhibition class
In short: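 DMEM with 1% FBS; cells seeded at 3000/well and grown 18 h at 37 °C, then exposed to compound for 72 h and to MTS/PMS for 4 h. IC50 is the concentration giving a 50% absorbance drop; grades are % inhibition bands.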

[1] = Homo sapiens, DLD-1 cells, read-out: DLD-1, MTS 72 hours at 10 uM
[2] = Homo sapiens, KATO III cells, read-out: KATO III, MTS 72 hours at 10 uM
[3] = Homo sapiens, MDA-MB-231 cells, read-out: MDA-MB-231, MTS 72 hours at 10 uM
[4] = Homo sapiens, NCI-H1299 cells, read-out: NCI-H1299, MTS 72 hours at 10 uM
[5] = Homo sapiens, PC-3 cells, read-out: PC-3, MTS 72 hours at 10 uM
[6] = PACA-2 cells, read-out: PACA-2, MTS 72 hours at 10 uM

Measured: inhibition at 10 µM

Cc1ccc(C)c(CCNc2nc3c4c(n[nH]c4n2)CCN3Cc2ccccc2)c1 [Compound 86, 6-benzyl-N-[2-(2,5-dimethylphenyl)ethyl]-2,6,7,8-tetrahydro-1,2,3,5,6-pentaazaacenaphthylen-4-amine]
50 to 79%: [2] | [4]
< 50%: [1] | [3] | [5] | [6]

O=C(NCc1ccccc1)C1CN(Cc2ccccc2)c2nc(NCc3ccco3)nc3[nH]nc1c23 (stereo not drawn) [Compound 225, N,6-dibenzyl-4-[(furan-2-ylmethyl)amino]-2,6,7,8-tetrahydro-1,2,3,5,6-pentaazaacenaphthylene-8-carboxamide]
< 50%: [1] | [2] | [3] | [4] | [5] | [6]

CN1CCN(c2nc3c4c(n[nH]c4n2)C(C(=O)NCc2ccccc2)CN3Cc2ccccc2)CC1 (stereo not drawn) [Compound 228, N,6-dibenzyl-4-(4-methylpiperazin-1-yl)-2,6,7,8-tetrahydro-1,2,3,5,6-pentaazaacenaphthylene-8-carboxamide]
< 50%: [1] | [2] | [3] | [4] | [5] | [6]

c1ccc(CN2CCc3n[nH]c4nc(N5CCN(Cc6ccccn6)CC5)nc2c34)cc1 [Compound 29, 6-benzyl-4-[4-(pyridin-2-ylmethyl)piperazin-1-yl]-2,6,7,8-tetrahydro-1,2,3,5,6-pentaazaacenaphthylene]
< 50%: [1] | [2] | [3] | [4] | [5] | [6]

c1ccc(CN2CCc3n[nH]c4nc(N5CCN(Cc6ccncc6)CC5)nc2c34)cc1 [Compound 92, 6-benzyl-4-[4-(pyridin-4-ylmethyl)piperazin-1-yl]-2,6,7,8-tetrahydro-1,2,3,5,6-pentaazaacenaphthylene]
< 50%: [1] | [2] | [3] | [4] | [5] | [6]

CN(C)CCCNc1nc2c3c(n[nH]c3n1)C(C(=O)NCc1ccccc1)CN2Cc1ccccc1 (stereo not drawn) [Compound 223, N,6-dibenzyl-4-{[3-(dimethylamino)propyl]ami-no}-2,6,7,8-tetrahydro-1,2,3,5,6-pentaazaacenaphthylene-8-carboxamide]
< 50%: [1] | [2] | [3] | [4] | [5] | [6]

c1ccc(CN2CCc3n[nH]c4nc(NCCCN5CCCCC5)nc2c34)cc1 [Compound 90, 6-benzyl-N-(3-piperidin-1-ylpropyl)-2,6,7,8-tetrahydro-1,2,3,5,6-pentaazaacenaphthylen-4-amine]
> 79%: [1] | [2] | [3] | [4] | [5] | [6]

Fc1ccccc1CN1CCN(c2nc3c4c(n[nH]c4n2)CCN3Cc2ccccc2)CC1 [Compound 5, 6-benzyl-4-[4-(2-fluorobenzyl)piperazin-1-yl]-2,6,7,8-tetrahydro-1,2,3,5,6-pentaazaacenaphthylene]
< 50%: [1] | [4] | [6]
50 to 79%: [2]
> 79%: [3] | [5]

COc1ccc(CN2CCCc3n[nH]c4nc(N5CCOCC5)nc2c34)cc1 [Compound 242, 6-(4-methoxybenzyl)-4-morpholin-4-yl-6,7,8,9-tetrahydro-2H-1,2,3,5,6-pentaazabenzo[cd]azulene]
< 50%: [2] | [3] | [4] | [5]
> 79%: [1]
50 to 79%: [6]

c1ccc(CN2CCc3n[nH]c4nc(NCCCN5CCOCC5)nc2c34)cc1 [Compound 25, 6-benzyl-N-(3-morpholin-4-ylpropyl)-2,6,7,8-tetrahydro-1,2,3,5,6-pentaazaacenaphthylen-4-amine]
< 50%: [1] | [2] | [3] | [4] | [5] | [6]

COc1ccc(CN2CCc3nn(Cc4ccccc4)c4nc(SC)nc2c34)cc1 [Compound 129, 2-benzyl-6-(4-methoxybenzyl)-4-(methylsulfanyl)-2,6,7,8-tetrahydro-1,2,3,5,6-pentaazaacenaphthylene]
< 50%: [1] | [2] | [3] | [4] | [5] | [6]

COc1cccc(CNc2nc3c4c(n[nH]c4n2)CCN3Cc2ccccc2)c1 [Compound 93, 6-benzyl-N-(3-methoxybenzyl)-2,6,7,8-tetrahydro-1,2,3,5,6-pentaazaacenaphthylen-4-amine]
< 50%: [1] | [2] | [3] | [4] | [5] | [6]

COc1ccc(CCNc2nc3c4c(n[nH]c4n2)CCN3Cc2ccccc2)cc1 [Compound 32, 6-benzyl-N-[2-(4-methoxyphenyl)ethyl]-2,6,7,8-tetrahydro-1,2,3,5,6-pentaazaacenaphthylen-4-amine]
> 79%: [1] | [2] | [3] | [4] | [5] | [6]

c1ccc(CN2CCc3n[nH]c4nc(N5CCN(c6ccccn6)CC5)nc2c34)cc1 [Compound 95, 6-benzyl-4-(4-pyridin-2-ylpiperazin-1-yl)-2,6,7,8-tetrahydro-1,2,3,5,6-pentaazaacenaphthylene]
< 50%: [1] | [2] | [3] | [4] | [5] | [6]

c1ccc(CN2CCc3n[nH]c4nc(NCc5ccc6c(c5)CCO6)nc2c34)cc1 [Compound 63, 6-benzyl-N-(2,3-dihydro-1-benzofuran-5-ylmethyl)-2,6,7,8-tetrahydro-1,2,3,5,6-pentaazaacenaphthylen-4-amine]
< 50%: [1] | [2] | [3] | [4] | [5] | [6]

CN(CCO)c1nc2c3c(n[nH]c3n1)CCN2Cc1ccccc1 [Compound 64, 2-[(6-benzyl-2,6,7,8-tetrahydro-1,2,3,5,6-pentaazaacenaphthylen-4-yl)(methyl)amino]ethanol]
< 50%: [1] | [2] | [3] | [4] | [5] | [6]

COC[C@H](C)Nc1nc2c3c(n[nH]c3n1)CCN2Cc1ccccc1 [Compound 18, 6-benzyl-N-[(1S)-2-methoxy-1-methylethyl]-2,6,7,8-tetrahydro-1,2,3,5,6-pentaazaacenaphthylen-4-amine]
< 50%: [1] | [2] | [3] | [4] | [5] | [6]

COc1ccc(CN2CCCc3n[nH]c4nc(NCCc5c[nH]c6ccc(Cl)cc56)nc2c34)cc1 [Compound 252, N-[2-(5-chloro-1H-indol-3-yl)ethyl]-6-(4-methoxybenzyl)-6,7,8,9-tetrahydro-2H-1,2,3,5,6-pentaazabenzo[cd]azulen-4-amine]
50 to 79%: [1]
< 50%: [2] | [3] | [4] | [5] | [6]

O=C1CCCN1CCCNc1nc2c3c(n[nH]c3n1)CCN2Cc1ccccc1 [Compound 51, 1-{3-[(6-benzyl-2,6,7,8-tetrahydro-1,2,3,5,6-pentaazaacenaphthylen-4-yl)amino]propyl}pyrrolidin-2-one]
< 50%: [1] | [2] | [3] | [4] | [5] | [6]

COc1cc(CNc2nc3c4c(n[nH]c4n2)CCN3Cc2ccccc2)cc(OC)c1 [Compound 82, 6-benzyl-N-(3,5-dimethoxybenzyl)-2,6,7,8-tetrahydro-1,2,3,5,6-pentaazaacenaphthylen-4-amine]
< 50%: [1] | [2] | [3] | [4] | [5] | [6]

COc1ccc(CN2CCc3n[nH]c4nc(NC5CCN(C)CC5)nc2c34)cc1 [Compound 111, 6-(4-methoxybenzyl)-N-(1-methylpiperidin-4-yl)-2,6,7,8-tetrahydro-1,2,3,5,6-pentaazaacenaphthylen-4-amine]
< 50%: [1] | [2] | [3] | [4] | [5] | [6]

c1ccc(CN2CCc3n[nH]c4nc(NCC5COc6ccccc6O5)nc2c34)cc1 (stereo not drawn) [Compound 59, 6-benzyl-N-(2,3-dihydro-1,4-benzodioxin-2-ylmethyl)-2,6,7,8-tetrahydro-1,2,3,5,6-pentaazaacenaphthylen-4-amine]
< 50%: [1] | [2] | [3] | [4] | [5] | [6]

Source: patent US8343983B2, “Substituted pyrazolo-pyrimidine compounds” (ArQule, Inc., priority 2009, dated 2013)
